The text below walks through data of patent US20260061065A1, “ANTIBODY DRUG CONJUGATES” (priority 2022, published 2026).

As usually defined, the pIC50 is −log10 of the IC50, conventionally taken in molar units. Higher therefore signals a small IC50.

Holding throughout (type): cell-based
One test concerns EBC-1 lung cancer cells. As to the kind of experiment: CellTiter-Glo proliferation assay, EBC1. The protocol: (§1) OCUM-1: Stomach/gastric cancer—JCRB No. JCRB0192 cultured in DMEM+0.5 mM sodium pyruvate+10% FBS EBC-1: Lung cancer—JCRB No. JCRB0820 cultured in DMEM+10% FBS SKCO-1: Colon cancer—ATCC No. HTB-39 cultured in Eagle's Minimum Essential Medium+10% FBS The Her2 antibody drug conjugates were tested against nine endogenous cancer cell lines. NCI-N87: Stomach/gastric cancer—ATCC No. CRL-5822 cultured in RPMI-1640+10% FBS The PCAD antibody drug conjugates were tested against nine endogenous cancer cell lines. BICR-22: Tongue cancer—ECACC No. 04072106 cultured in DMEM+2 mM Glutamine+2% FBS+0.4 micrograms/ml Hydrocortisone
(§2) The ability of the antibody drug conjugates to inhibit cell proliferation and survival was assessed using the Promega CellTiter-Glo® proliferation assay.
(§3) Cell lines were cultured in media that is optimal for their growth at 5% CO2, 37° C. in a tissue culture incubator. […] On the day of seeding, cell viability and cell density were determined using a cell counter (Vi-Cell XR Cell Viability Analyzer, Beckman Coulter). […] Plates were incubated at 5% CO2, 37° C. for 5 days in a tissue culture incubator, after which cell viability was assessed through the addition of 25 μL of CellTiter Glo® (Promega, cat #G7573), a reagent which lyses cells and measures total adenosine triphosphate (ATP) content. […]
A general note: Cellular ATP, detected with luciferase, serves as a proxy for viable cell number.

The subject of test [1] is BICR-22 tongue cancer cells. As to the kind of experiment: CellTiter-Glo proliferation assay, BICR22. As for the experimental part:
as §1, §2, §3

Test [2] deals with NCI-N87 stomach/gastric cancer cells. As to the kind of experiment: CellTiter-Glo proliferation assay, NCIN87. The protocol:
as §1, §2, §3

Test [3] has as its system OCUM-1 stomach/gastric cancer cells. As to the kind of experiment: CellTiter-Glo proliferation assay, OCUM1. As for the experimental part: as §1, §2, §3
Test [4] deals with SKCO-1 colon cancer cells. As to the kind of experiment: CellTiter-Glo proliferation assay, SKCO1. As for the experimental part:
as §1, §2, §3

pIC50: −log10 of the molar value.

With `CCC(C)[C@@H]([C@@H](CC(=O)N1CCC[C@H]1[C@H](OC)[C@@H](C)C(=O)N[C@@H](Cc1ccccc1)c1nccs1)OC)N(C)C(=O)[C@@H](NC(=O)[C@H]1N[C@@H]2CC[C@H]1C2)C(C)C` (stereo partly shown) [Auristatin#1], the pIC50 with EBC-1 lung cancer cells (Homo sapiens, EBC-1, 120 h) is 9.64; in test [1] (120 h), 9.57; in test [2] (Homo sapiens, NCI-N87, 120 h), 8.92; in test [3] (OCUM1, 120 h) it was 8.86; in test [4] (Homo sapiens, SK-CO-1, 120 h), 8.95. Moreover, the “Amax (Span)” value with EBC-1 lung cancer cells (Unconjugated drug cytotoxicity, EBC1, 5 days) worked out at 77.0; in test [1] (Unconjugated drug cytotoxicity, BICR22, 5 days), 89.7; in test [2] (Unconjugated drug cytotoxicity, NCIN87, 5 days), 75.7; in test [3] (Unconjugated drug cytotoxicity, OCUM1, 5 days), 72.3; in test [4] (Unconjugated drug cytotoxicity, SKCO1, 5 days) it was 81.6.
